Patent publication US10889553B2, “Asymmetric triazole benzamide derivatives and the compositions and methods of treatment regarding the same” (NysnoBio Ireland DAC, priority 2017, dated 2021)

What was measured:
[1] = Microsomal stability assay, rat liver microsomes; format: in vitro ADME; details: pH 7.4; rat liver microsomes 1.0 mg/mL, 1 μM compound, NADPH; read-out: RLM t1/2
Method: (§1) Compounds were also tested for metabolic stability in both rat liver microsomes (RLM) and the compounds are tested for human liver microsomes (HLM) and their half-life is calculated (See Tables 5A and 5B). The assay was performed as follows. The total volume for each incubation was 250 μL. A 100 μM DMSO solution of compound (diluted from 10 mM stock solution) was spiked into 50 mM KH2PO4 (pH 7.4) buffer containing liver microsome at a concentration of 1.0 mg/mL. The reaction was initiated by the addition of 50 μL of 1 mM NADPH. The final concentration of each compound was 1 μM (1% DMSO). The positive controls, phenacetin for CYP1A2, diclofenac for CYP2C9, omeprazole for CYP2C19, dextromethorphan for CYP2D6 and midazolam for CYP3A4 were added to a separate tube with the final substrate concentrations of 1 μM (1% DMSO) for evaluating the enzyme activities in the liver microsomes. At 0, 15, 30 and 60 min, an aliquot of 15 μL reaction mixtures were removed and 200 μL of methanol (with internal standard of 25 ng/mL propranolol) was added to quench the reaction. The resulting mixture was centrifuged and supernatant was used for LC-MS/MS analysis.
(§2) The signals for each compound, or the metabolites for the probe substrates and the internal standard were integrated and the peak area ratios to internal standard were generated. Percent parent remaining at a specified timepoint was calculated based on the peak area ratios at time 0 (as 100%) for in vitro metabolic stability studies in liver microsome and hepatocyte. The observed rate constant (kobs) for the metabolism of substrates was calculated by plotting the natural log of percentage substrate remaining versus time of incubation with the slope being kobs. The half-life (T1/2) was calculated according to the following equation: T1/2=[…]

Calu-6 (lung) = assay: Cancer cell proliferation assay (acid phosphatase); format: cell-based; details: Homo sapiens, Table 6A, 72 hrs, read-out: Calu6 IC50
How it was run: (§3)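 Growth inhibition is expressed as a percentage of DMSO-treated control cells, using absorbance at 405 nm corrected at 620 nm after acid phosphatase conversion of p-nitrophenol phosphate. Compound exposure lasts 72 hrs at 37° C. following overnight attachment.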

LS-174T (colon) = assay: Cancer cell proliferation assay (acid phosphatase); format: cell-based; details: Homo sapiens, LS174T; Table 6A; 72 hrs
How it was run: as §3

TOV-21G (ovarian) = assay: Cancer cell proliferation assay (acid phosphatase); format: cell-based; details: Homo sapiens, TOV21G, 72 h, Table 6A; 72 hrs; read-out: TOV-21G IC50
How it was run: as §3

A549 (lung) = assay: Cancer cell proliferation assay (acid phosphatase); format: cell-based; details: Homo sapiens, A549, 72 h, Table 6A; 72 hrs; read-out: A549 IC50
How it was run: as §3

[2] = Microsomal stability assay, human liver microsomes; format: in vitro ADME; details: pH 7.4; human liver microsomes 1.0 mg/mL, 1 μM compound, NADPH; read-out: HLM t1/2
Method: as §1, §2

HCT-116 (colon) = assay: Cancer cell proliferation assay (acid phosphatase); format: cell-based; details: Homo sapiens, HCT-116, 72 h, Table 6A; 72 hrs; read-out: HCT-116 IC50
How it was run: as §3

Row | Structure (SMILES) | half-life at 1 μM [1] | IC50 (Calu-6 (lung)) | IC50 (LS-174T (colon)) | IC50 (TOV-21G (ovarian)) | IC50 (A549 (lung)) | half-life at 1 μM [2] | IC50 (HCT-116 (colon))
1 | Cc1ccc(C(=O)Nc2nc(NC(=O)c3ccc(C)cc3)n(-c3ccccc3)n2)cc1 [Compound 21] | 0.1 h | > 2500 nM | > 2500 nM | 2500 nM | 2500 nM | – | –
2 | O=C(Nc1nc(NC(=O)c2ccncc2)n(-c2ccccc2)n1)c1ccncc1 [Compound 33] | 3.3 h | – | – | > 2500 nM | > 2500 nM | – | –
3 | COc1ccccc1C(=O)Nc1nc(NC(=O)c2ccccc2OC)n(-c2ccccc2)n1 [Compound 23] | 0.35 h | > 2500 nM | > 2500 nM | 2400 nM | > 2500 nM | – | –
4 | Cc1ccccc1C(=O)Nc1nc(NC(=O)C2CCCN2)nn1-c1ccccc1 (stereo not shown) [Compound 20] | 2.45 h | – | > 1000 nM | > 1000 nM | – | – | –
5 | Cc1ccccc1C(=O)Nc1nc(NC(=O)c2ccno2)n(-c2ccccc2)n1 [Compound 7] | 3.98 h | – | – | > 1000 nM | – | – | –
6 | Cc1ccccc1C(=O)Nc1nc(NCc2ccccc2)nn1-c1ccc(C(F)(F)F)cc1 [Compound 102] | 0.167 h | – | – | > 2500 nM | > 2500 nM | – | 2500 nM
7 | Cc1ccccc1C(=O)Nc1nc(NC(=O)c2ccccc2C)n(-c2ccc(F)cc2F)n1 [Compound 46] | 1.62 h | – | 2500 nM | 2400 nM | 2500 nM | – | –
8 | O=C(Nc1nc(NC(=O)c2cccnc2)n(-c2ccccc2)n1)c1cccnc1 [Compound 40] | > 8.33 h | – | > 2500 nM | > 2500 nM | – | – | –
9 | O=C(Nc1nc(NC(=O)c2ccccn2)n(-c2ccccc2)n1)c1ccccn1 [Compound 41] | 0.283 h | – | 2500 nM | > 2500 nM | 2500 nM | – | –
10 | Cc1ccccc1C(=O)Nc1nc(NC(=O)c2ccccn2)nn1-c1ccccc1 [Compound 16] | 2.35 h | – | – | 2300 nM | 2600 nM | – | –
11 | Cc1ccccc1C(=O)Nc1nc(NC(=O)c2cnccn2)n(-c2ccccc2)n1 [Compound 17] | 0.433 h | – | – | > 1000 nM | – | – | –
12 | Cc1ccccc1C(=O)Nc1nc(NC(=O)c2ccccc2C)n(-c2ccccc2F)n1 [Compound 32] | 3.4 h | – | > 2500 nM | > 2500 nM | > 2500 nM | – | –

More lines, now with the values ahead:

Row | half-life at 1 μM [1] | IC50 (Calu-6 (lung)) | IC50 (LS-174T (colon)) | IC50 (TOV-21G (ovarian)) | IC50 (A549 (lung)) | half-life at 1 μM [2] | IC50 (HCT-116 (colon)) | Structure (SMILES)
13 | 1.05 h | 170 nM | 1300 nM | 300 nM | 220 nM | 2.45 h | – | Cc1ccccc1C(=O)Nc1nc(NC(=O)c2ccccc2C)n(-c2cccc(Cl)c2)n1 [Compound 36]
14 | 0.1 h | > 2500 nM | 2500 nM | 1900 nM | 2000 nM | – | – | Cc1ccccc1C(=O)Nc1nc(NC(=O)c2ccccc2C)n(-c2ccc(N3CCCCC3)cc2)n1 [Compound 44]
15 | 0.717 h | 1400 nM | – | 590 nM | 1200 nM | – | – | Cc1ccnc(-c2nc(NC(=O)c3ccccc3C)n(-c3ccccc3)n2)c1 [Compound 124]
16 | 3.3 h | – | 2300 nM | 1400 nM | 2400 nM | – | – | Cc1ccccc1C(=O)Nc1nc(NC(=O)c2ccccc2C)n(-c2ccc(C#N)cc2)n1 [Compound 35]
17 | 0.967 h | – | > 1000 nM | 2100 nM | 2500 nM | – | – | Cc1ccccc1C(=O)Nc1nc(NC(=O)c2ccccc2C)n(-c2ccccc2Cl)n1 [Compound 26]
18 | 0.0833 h | – | – | 1200 nM | – | – | – | Cc1ccccc1C(=O)Nc1nc(NC(=O)c2cccnc2)nn1-c1ccccc1 [Compound 6]
19 | 0.433 h | 2600 nM | 2300 nM | 1700 nM | 2100 nM | – | – | Cc1cccc(-n2nc(NC(=O)c3ccccc3C)nc2NC(=O)c2ccccc2C)c1 [Compound 38]
20 | 0.35 h | – | 2400 nM | 1900 nM | 2300 nM | – | – | COc1ccc(C(=O)Nc2nc(NC(=O)c3ccc(OC)cc3)n(-c3ccccc3)n2)cc1 [Compound 37]
21 | 5.5 h | – | 2600 nM | 1500 nM | 2500 nM | – | – | Cc1ccccc1C(=O)Nc1nc(NC(=O)c2ccncc2)nn1-c1ccccc1 [Compound 34]
22 | 0.683 h | – | – | 2200 nM | 2200 nM | – | 642000 nM | C#Cc1ccc(C(=O)Nc2nc(NC(=O)c3cccc(N=[N+]=[N-])c3)n(-c3ccccc3)n2)cc1 [Compound 2]
23 | 0.233 h | – | > 2500 nM | 2300 nM | 2500 nM | – | – | Cc1ccc(-n2nc(NC(=O)c3ccccc3C)nc2NC(=O)c2ccccc2C)cc1 [Compound 31]
24 | 2.22 h | 2500 nM | 2100 nM | 1500 nM | 1200 nM | – | – | Cc1ccccc1C(=O)Nc1nc(NC(=O)c2ccccc2C)n(-c2cccc(F)c2)n1 [Compound 39]
25 | 6.8 h | 430 nM | < 200 nM | < 100 nM | 40 nM | 1.18 h | 120 nM | Cc1ccccc1C(=O)Nc1nc(NC(=O)c2ccccc2C)n(-c2ccc(C(F)(F)F)cc2)n1 [Compound 25]
26 | 2.18 h | 290 nM | 940 nM | 970 nM | 280 nM | 3.4 h | – | Cc1ccccc1C(=O)Nc1nc(NC(=O)c2ccccc2C)n(-c2ccc(F)c(F)c2)n1 [Compound 24]
